This note sets out measurements from patent US20160362408A1 (Bayer Pharma Aktiengesellschaft, priority 2013, published 2016).

Structures can show the parent of a compound that is named as a salt.

The target of this experiment is T1, recombinant guanylate cyclase reporter cell line (Rattus norvegicus, UniProt P19686+P20595).
T1 construct: expressed in transfected cells
T1 sequence (P19686 1-690): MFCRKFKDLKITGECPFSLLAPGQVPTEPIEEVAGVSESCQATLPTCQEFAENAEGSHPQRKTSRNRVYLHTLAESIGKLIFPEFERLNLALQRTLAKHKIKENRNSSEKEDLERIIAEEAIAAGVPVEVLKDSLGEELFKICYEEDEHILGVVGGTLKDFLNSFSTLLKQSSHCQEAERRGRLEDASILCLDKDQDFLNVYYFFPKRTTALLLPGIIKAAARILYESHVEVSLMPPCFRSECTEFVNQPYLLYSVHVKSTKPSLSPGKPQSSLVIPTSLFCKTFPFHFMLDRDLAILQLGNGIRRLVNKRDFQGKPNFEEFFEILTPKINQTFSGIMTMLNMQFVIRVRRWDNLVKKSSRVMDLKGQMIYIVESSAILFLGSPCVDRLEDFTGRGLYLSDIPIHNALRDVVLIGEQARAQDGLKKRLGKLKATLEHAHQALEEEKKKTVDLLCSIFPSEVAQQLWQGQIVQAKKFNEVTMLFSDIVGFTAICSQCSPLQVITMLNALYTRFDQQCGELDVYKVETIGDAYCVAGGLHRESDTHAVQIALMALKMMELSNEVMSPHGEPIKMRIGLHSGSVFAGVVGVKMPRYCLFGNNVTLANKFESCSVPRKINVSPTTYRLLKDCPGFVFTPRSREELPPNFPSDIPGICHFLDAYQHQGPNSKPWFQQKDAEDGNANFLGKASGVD
T1 sequence (P20595 1-619): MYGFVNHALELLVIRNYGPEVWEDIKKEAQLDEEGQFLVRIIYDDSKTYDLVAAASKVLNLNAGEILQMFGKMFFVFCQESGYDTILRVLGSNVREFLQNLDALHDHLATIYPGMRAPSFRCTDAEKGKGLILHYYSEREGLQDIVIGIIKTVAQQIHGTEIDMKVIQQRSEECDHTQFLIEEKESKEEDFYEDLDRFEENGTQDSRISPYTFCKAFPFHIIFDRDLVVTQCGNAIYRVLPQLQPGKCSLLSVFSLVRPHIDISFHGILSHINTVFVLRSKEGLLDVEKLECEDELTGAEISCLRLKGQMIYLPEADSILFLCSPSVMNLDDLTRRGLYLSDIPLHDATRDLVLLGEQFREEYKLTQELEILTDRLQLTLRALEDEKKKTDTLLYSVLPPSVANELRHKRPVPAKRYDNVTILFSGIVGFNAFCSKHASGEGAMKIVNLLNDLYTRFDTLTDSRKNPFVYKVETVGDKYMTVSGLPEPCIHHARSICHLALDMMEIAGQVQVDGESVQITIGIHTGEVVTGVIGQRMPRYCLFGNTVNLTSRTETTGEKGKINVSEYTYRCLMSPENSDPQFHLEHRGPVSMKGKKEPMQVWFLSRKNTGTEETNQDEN
Kind of experiment: Effect on a recombinant guanylate cyclase reporter cell line. Type of experiment: cell-based. The note with it: MEC = minimum effective concentration; in some cases mean values for individual determinations. The protocol: B-2. Effect on a Recombinant Guanylate Cyclase Reporter Cell Line
The cellular action of the compounds of the invention is determined using a recombinant guanylate cyclase reporter cell line, as described in F. Wunder et al., Anal. Biochem. 339, 104-112 (2005).
Representative MEC values (MEC=minimum effective concentration) for the compounds of the invention are shown in the table below (in some cases as mean values for individual determinations): […]
Take `Cc1n[nH]c(C)c1NC(=O)c1c(C)nc2c(OCc3c(F)cccc3F)cc(Cl)cn12` [Example 41, 6-chloro-8-[(2,6-difluorobenzyl)oxy]-N-(3,5-dimethyl-1H-pyrazol-4-yl)-2-methylimidazo[1,2-a]pyridine-3-carboxamide]: the MEC was 0.1 µM.

On to `Cc1cc(OCC2CC(F)(F)C2)c2nc(C)c(C(=O)Nc3c(C)n[nH]c3C(F)(F)F)n2c1` [Example 151, 8-[(3,3-Difluorocyclobutyl)methoxy]-2,6-dimethyl-N-[3-methyl-5-(trifluoromethyl)-1H-pyrazol-4-yl]imidazo[1,2-a]pyridine-3-carboxamide], for which the MEC was 3.0 µM.

Turning to `Cc1nc2c(OCc3c(F)cccc3F)cccn2c1C(=O)Nc1cnn(CCN2CCC(O)C2)c1` (racemic) [Example 131, rac-8-[(2,6-difluorobenzyl)oxy]-N-{1-[2-(3-hydroxypyrrolidin-1-yl)ethyl]-1H-pyrazol-4-yl}-2-methylimidazol[1,2-a] pyridine-3-carboxamide], the MEC amounted to 10 µM.

Turning to `Cc1nc2c(OCc3c(F)cccc3F)cccn2c1C(=O)Nc1cnn(CCO)c1` [Example 22, 8-[(2,6-Difluorobenzyl)oxy]-N-[1-(2-hydroxyethyl)-1H-pyrazol-4-yl]-2-methylimidazo[1,2-a]pyridine-3-carboxamide], the MEC was found to be 1.43 µM.

In the case of `Cc1nc2c(OCc3c(F)cccc3F)cccn2c1C(=O)Nc1cnn(CCF)c1` [Example 140, 8-[(2,6-Difluorobenzyl)oxy]-N-[1-(2-fluoroethyl)-1H-pyrazol-4-yl]-2-methylimidazo[1,2-a]pyridine-3-carboxamide], the MEC was determined as 1.0 µM.

On to `Cc1nc2c(OCc3c(F)cccc3F)cccn2c1C(=O)Nc1ccc(N2CCNCC2)c(C(F)(F)F)c1` [Example 107, 8-[(2,6-difluorobenzyl)oxy]-2-methyl-N-[4-(piperazin-1-yl)-3-(trifluoromethyl)phenyl]imidazo[1,2-a]pyridine-3-carboxamide], for which the MEC stood at 1.0 µM.

With `Cc1nc2c(OCc3c(F)cccc3F)cccn2c1C(=O)Nc1nnc(CCOC(C)C)s1` [Example 83], the MEC is 3.0 µM.

In the case of `Cc1cc(NC(=O)c2c(C)nc3c(OCc4c(F)cccc4F)cccn23)cc(C)n1` [Example 101], the MEC came to 1.0 µM.

As for `Cc1nc2c(OCc3c(F)cccc3F)cccn2c1C(=O)Nc1nccc2ccccc12` [Example 59, 8-[(2,6-difluorobenzyl)oxy]-N-(isoquinolin-1-yl)-2-methylimidazo[1,2-a]pyridin-3-carboxamide trifluoroacetate], the MEC is 1.0 µM.

As for `Cc1cc(OCc2c(F)cccc2F)c2nc(C)c(C(=O)Nc3c(C)n[nH]c3C)n2c1` [Example 52, 8-[(2,6-difluorobenzyl)oxy]-N-(3,5-dimethyl-1H-pyrazol-4-yl)-2,6-dimethylimidazo[1,2-a]pyridine-3-carboxamide], the MEC came to 0.65 µM.

Take `Cc1nc2c(OCc3c(F)cccc3F)cccn2c1C(=O)Nc1cnn(CCN2CCCC2)c1` [Example 128, 8-[(2,6-difluorobenzyl)oxy]-2-methyl-N-{1-[2-(pyrrolidin-1-yl)ethyl]-1H-pyrazol-4-yl}imidazo [1,2-a]pyridine-3-carboxamide]: the MEC was found to be 3.0 µM.

`Cc1nc2c(OCc3c(F)cccc3F)cccn2c1C(=O)Nc1cnn(CCN2CCC(O)CC2)c1` [Example 130, 8-[(2,6-difluorobenzyl)oxy]-N-{1-[2-(4-hydroxypiperidin-1-yl)ethyl]-1H-pyrazol-4-yl}-2-methylimidazol[1,2-a] pyridine-3-carboxamide]: the MEC came to 10 µM.

For `Cc1noc(C)c1NC(=O)c1c(C)nc2c(OCc3c(F)cccc3F)cc(Cl)cn12` [Example 39, 6-Chloro-8-[(2,6-difluorobenzyl)oxy]-N-(3,5-dimethyl-1,2-oxazol-4-yl)-2-methylimidazo[1,2-a]pyridine-3-carboxamide], the MEC came to 1.0 µM.

For the molecule `Cc1nc2c(OCc3c(F)cccc3F)cccn2c1C(=O)Nc1nccs1` [Example 145, 8-[(2,6-difluorobenzyl)oxy]-2-methyl-N-(1,3-thiazol-2-yl) imidazo[1,2-a]pyridine-3-carboxamide], the MEC is 3.0 µM.

`Cc1nc2c(OCc3c(F)cccc3F)cccn2c1C(=O)Nc1c(-c2ccccc2)noc1C` [Example 55, 8-[(2,6-Difluorobenzyl)oxy]-2-methyl-N-(5-methyl-3-phenyl-1,2-oxazol-4-yl)imidazo[1,2-a]pyridine-3-carboxamide]: the MEC is 1.0 µM.

Turning to `Cc1ccnc(NC(=O)c2c(C)nc3c(OCc4c(F)cccc4F)cccn23)n1` [Example 126, 8-[(2,6-Difluorobenzyl)oxy]-2-methyl-N-(4-methylpyrimidin-2-yl)imidazo[1,2-a]pyridine-3-carboxamide], the MEC is 1.0 µM.

Turning to `Cc1nc2c(OCc3c(F)cccc3F)cccn2c1C(=O)Nc1cnn(C(C)C)c1` [Example 27, 8-[(2,6-difluorobenzyl)oxy]-N-(1-isopropyl-1H-pyrazol-4-yl)-2-methylimidazo[1,2-a]pyridine-3-carboxamide], the MEC was determined as 0.3 µM.

Regarding `Cc1nn(CCO)c(C)c1NC(=O)c1c(C)nc2c(OCc3c(F)cccc3F)cccn12` [Example 37, 8-[(2,6-difluorobenzyl)oxy]-N-[1-(2-hydroxyethyl)-3,5-dimethyl-1H-pyrazol-4-yl]-2-methylimidazo[1,2-a]pyridine-3-carboxamide], the MEC turned out to be 0.3 µM.

Take `Cc1nc2c(OCc3c(F)cccc3F)cccn2c1C(=O)Nc1cccnc1` [Example 95]: the MEC was found to be 0.3 µM.

Turning to `CC(=O)Nc1ccc(NC(=O)c2c(C)nc3c(OCc4c(F)cccc4F)cccn23)cc1C(F)(F)F` [Example 18], the MEC was 0.3 µM.

For `Cc1ccc2ccccc2c1NC(=O)c1c(C)nc2c(OCc3c(F)cccc3F)cccn12` [Example 66], the MEC was 0.1 µM.

`Cc1nn(CC(F)(F)F)c(C)c1NC(=O)c1c(C)nc2c(OCc3c(F)cccc3F)cccn12` [Example 32, 8-[(2,6-difluorobenzyl)oxy]-N-[3,5-dimethyl-1-(2,2,2-trifluoroethyl)-1H-pyrazol-4-yl]-2-methylimidazo[1,2-a]pyridine-3-carboxamide]: the MEC came to 1.0 µM.

Consider `Cc1nn(C)c(N2CCOCC2)c1NC(=O)c1c(C)nc2c(OCc3c(F)cccc3F)cccn12` [Example 34, 8-[(2,6-difluorobenzyl)oxy]-N-[1,3-dimethyl-5-(morpholin-4-yl)-1H-pyrazol-4-yl]-2-methylimidazo[1,2-a]pyridine-3-carboxamide], for which the MEC stood at 1.0 µM.

In the case of `Cc1nc2c(OCc3c(F)cccc3F)cccn2c1C(=O)Nc1cnn(Cc2cccc(F)c2)c1` [Example 35, 8-[(2,6-difluorobenzyl)oxy]-N-[1-(3-fluorobenzyl)-1H-pyrazol-4-yl]-2-methylimidazo[1,2-a]pyridine-3-carboxamide], the MEC is 3.0 µM.

In the case of `Cc1nc2c(OCc3c(F)cccc3F)cccn2c1C(=O)Nc1cnn(CCOS(N)(=O)=O)c1` [Example 139, 2-{4-[({8-[(2,6-Difluorobenzyl)oxy]-2-methylimidazo[1,2-a]pyridin-3-yl}carbonyl)amino]-1H-pyrazol-1-yl}ethyl sulphamate trifluoroacetate], the MEC came to 3.0 µM.

Turning to `Cc1nc2c(OCc3c(F)cccc3F)cccn2c1C(=O)Nc1ccnc2c(F)cccc12` [Example 78], the MEC was determined as 1.0 µM.

Take `Cc1noc(C)c1NC(=O)c1c(C)nc2c(OCc3c(F)cccc3F)cccn12` [Example 23, 8-[(2,6-difluorobenzyl)oxy]-N-(3,5-dimethyl-1,2-oxazol-4-yl)-2-methylimidazo[1,2-a]pyridine-3-carboxamide]: the MEC is 0.65 µM.

In the case of `Cc1nc2c(OCc3c(F)cccc3F)cccn2c1C(=O)Nc1cccc2ccc(O)cc12` [Example 74], the MEC was 1.0 µM.
